# Tests used:
# [1] = compound: T1, CN1CC[C@H](c2c(O)cc(O)c3c(=O)cc(-c4ccccc4Cl)oc23)[C@H](O)C1 [Flavopiridol]; test: GR value, 72 h; higher = faster growth (1 = untreated, <0 = killing);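 note: breast cancer and non-malignant breast epithelial lines, nine half-log doses, viable cells counted by Hoechst and LIVE/DEAD dye imaging versus time-zero plates and DMSO controls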
# [2] = compound: CN(C)C/C=C/C(=O)Nc1ccc(C(=O)Nc2cccc(Nc3ncc(Cl)c(-c4c[nH]c5ccccc45)n3)c2)cc1 [THZ1]; test: as above
# [3] = compound: CN(C)C/C=C/C(=O)Nc1ccc(C(=O)N2CCC[C@@H](Nc3ncc(Cl)c(-c4c[nH]c5ccccc45)n3)C2)cc1 [THZ531]; test: as above
# [4] = compound: CN(C)C(=O)c1cc2cnc(Nc3ccc(N4CCNCC4)cn3)nc2n1C1CCCC1 [LEE011/Ribociclib]; test: as above
# [5] = compound: CCOc1cc2ncc(C#N)c(Nc3ccc(OCc4ccccn4)c(Cl)c3)c2cc1NC(=O)/C=C/CN(C)C [Neratinib/HKI272]; test: as above
# [6] = compound: CC(=O)c1c(C)c2cnc(Nc3ccc(N4CCN(CCOCCOCCOCCNC(=O)COc5cccc6c5C(=O)N(C5CCC(=O)NC5=O)C6=O)CC4)cn3)nc2n(C2CCCC2)c1=O [BSJ-03-123]; test: as above
# [7] = compound: CC(=O)c1c(C)c2cnc(Nc3ccc(N4CCNCC4)cn3)nc2n(C2CCCC2)c1=O; test: as above
# [8] = compound: C=CC(=O)Nc1ccc(C(=O)Nc2[nH]nc3c2CN(C(=O)N[C@H](CN(C)C)c2ccccc2)C3(C)C)cc1 [YKL-5-124]; test: as above
# [9] = compound: CCc1cnn2c(NCc3ccc[n+]([O-])c3)cc(N3CCCC[C@H]3CCO)nc12; test: as above
# [10] = compound: CCN1CCN(Cc2ccc(Nc3ncc(F)c(-c4cc(F)c5nc(C)n(C(C)C)c5c4)n3)nc2)CC1; test: as above
# [11] = compound: T1, Flavopiridol
# [12] = compound: CN(C)CC[C@H](CSc1ccccc1)Nc1ccc(S(=O)(=O)NC(=O)c2ccc(N3CCN(Cc4ccccc4-c4ccc(Cl)cc4)CC3)cc2)cc1[N+](=O)[O-] [ABT-737]
# [13] = compound: CO[C@@H](C)Cn1c(=O)n(C)c2cnc3ccc(-c4cncc(C(C)(C)O)c4)cc3c21
# [14] = compound: Cc1nc(-c2cn3c(n2)-c2ccc(-c4cnn(C(C)(C)C(N)=O)c4)cc2OCC3)n(C(C)C)n1 [Taselisib/GDC0032]
# [15] = compound: CN1CCN(CCOc2cc(OC3CCOCC3)c3c(Nc4c(Cl)ccc5c4OCO5)ncnc3c2)CC1 [Saracatinib/AZD0530]
# 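Throughout, for GR50, 72 h: breast cancer and non-malignant breast epithelial cell lines, Deep Dye Drop or Dye Drop imaging, nine half-log doses, GR normalized to time-zero plates and DMSO-only controls.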
cell line,measurement,setting,value
HCC70,GR value,[1]; 0.0001 µM,1.05 GR
same,GR value,[1]; 0.0003162 µM,1.01 GR
same,GR value,[1]; 0.001 µM,1.1 GR
same,GR value,[1]; 0.003162 µM,1.16 GR
same,GR value,[1]; 0.01 µM,0.998 GR
same,GR value,[1]; 0.03162 µM,0.791 GR
same,GR value,[1]; 0.1 µM,0.371 GR
same,GR value,[1]; 0.3162 µM,-0.694 GR
same,GR value,[1]; 1 µM,-0.815 GR
same,GR value,[2]; 0.0001 µM,0.985 GR
same,GR value,[2]; 0.0003162 µM,1.01 GR
same,GR value,[2]; 0.001 µM,1.04 GR
same,GR value,[2]; 0.003162 µM,1.02 GR
same,GR value,[2]; 0.01 µM,0.707 GR
same,GR value,[2]; 0.03162 µM,-0.291 GR
same,GR value,[2]; 0.1 µM,-0.838 GR
same,GR value,[2]; 0.3162 µM,-0.936 GR
same,GR value,[2]; 1 µM,-0.944 GR
same,GR value,[3]; 0.0001 µM,1.09 GR
same,GR value,[3]; 0.0003162 µM,0.962 GR
same,GR value,[3]; 0.001 µM,1.15 GR
same,GR value,[3]; 0.003162 µM,1.02 GR
same,GR value,[3]; 0.01 µM,1.16 GR
same,GR value,[3]; 0.03162 µM,0.962 GR
same,GR value,[3]; 0.1 µM,-0.197 GR
same,GR value,[3]; 0.3162 µM,-0.793 GR
same,GR value,[3]; 1 µM,-0.941 GR
same,GR value,[4]; 0.001 µM,1.03 GR
same,GR value,[4]; 0.003162 µM,1.17 GR
same,GR value,[4]; 0.01 µM,1.01 GR
same,GR value,[4]; 0.03162 µM,1.04 GR
same,GR value,[4]; 0.1 µM,1.09 GR
same,GR value,[4]; 0.3162 µM,1.03 GR
same,GR value,[4]; 1 µM,1.06 GR
same,GR value,[4]; 3.162 µM,1.03 GR
same,GR value,[4]; 10 µM,1.05 GR
same,GR value,[5]; 0.0003162 µM,1.04 GR
same,GR value,[5]; 0.001 µM,0.943 GR
same,GR value,[5]; 0.003162 µM,1.02 GR
same,GR value,[5]; 0.01 µM,0.986 GR
same,GR value,[5]; 0.03162 µM,0.79 GR
same,GR value,[5]; 0.1 µM,0.621 GR
same,GR value,[5]; 0.3162 µM,0.377 GR
same,GR value,[5]; 1 µM,0.128 GR
same,GR value,[5]; 3.162 µM,0.0733 GR
same,GR value,[6]; 0.001 µM,1.1 GR
same,GR value,[6]; 0.003162 µM,0.898 GR
same,GR value,[6]; 0.01 µM,1 GR
same,GR value,[6]; 0.03162 µM,0.996 GR
same,GR value,[6]; 0.1 µM,0.911 GR
same,GR value,[6]; 0.3162 µM,0.848 GR
same,GR value,[6]; 1 µM,0.865 GR
same,GR value,[6]; 3.162 µM,0.754 GR
same,GR value,[6]; 10 µM,-0.525 GR
same,GR value,[7]; 0.0003162 µM,0.988 GR
same,GR value,[7]; 0.001 µM,1.07 GR
same,GR value,[7]; 0.003162 µM,1.08 GR
same,GR value,[7]; 0.01 µM,1.07 GR
same,GR value,[7]; 0.03162 µM,1.09 GR
same,GR value,[7]; 0.1 µM,0.961 GR
same,GR value,[7]; 0.3162 µM,1.06 GR
same,GR value,[7]; 1 µM,1.05 GR
same,GR value,[7]; 3.162 µM,0.896 GR
same,GR value,[8]; 0.001 µM,-0.0339 GR
same,GR value,[8]; 0.003162 µM,-0.217 GR
same,GR value,[8]; 0.01 µM,-0.27 GR
same,GR value,[8]; 0.03162 µM,-0.419 GR
same,GR value,[8]; 0.1 µM,-0.484 GR
same,GR value,[8]; 0.3162 µM,-0.506 GR
same,GR value,[8]; 1 µM,-0.608 GR
same,GR value,[8]; 3.162 µM,-0.727 GR
same,GR value,[8]; 10 µM,-0.871 GR
same,GR value,[9]; 0.0001 µM,1.05 GR
same,GR value,[9]; 0.0003162 µM,0.913 GR
same,GR value,[9]; 0.001 µM,1.13 GR
same,GR value,[9]; 0.003162 µM,1.26 GR
same,GR value,[9]; 0.01 µM,0.835 GR
same,GR value,[9]; 0.03162 µM,-0.865 GR
same,GR value,[9]; 0.1 µM,-0.892 GR
same,GR value,[9]; 0.3162 µM,-0.885 GR
same,GR value,[9]; 1 µM,-0.901 GR
same,GR value,[10]; 0.001 µM,1.06 GR
same,GR value,[10]; 0.003162 µM,1.38 GR
same,GR value,[10]; 0.01 µM,1.24 GR
same,GR value,[10]; 0.03162 µM,1.18 GR
same,GR value,[10]; 0.1 µM,1.2 GR
same,GR value,[10]; 0.3162 µM,1.06 GR
same,GR value,[10]; 1 µM,0.852 GR
same,GR value,[10]; 3.162 µM,-0.0922 GR
same,GR value,[10]; 10 µM,-0.82 GR
same,"GR50, 72 h",[11],0.0784 µM
same,"GR50, 72 h",[12],2.78 µM
same,"GR50, 72 h",[13],0.00263 µM
same,"GR50, 72 h",[14],0.161 µM
same,"GR50, 72 h",[15],0.0644 µM
